From patent publication US10717733B2, “Haloallylamine indole and azaindole derivative inhibitors of lysyl oxidases and uses thereof” (PHARMAXIS LTD., priority 2016, dated 2020)
Counter-ions that a name gives are not always drawn.

Tests used:
Type in all cases: biochemical
[1] = biological target: Human LOXL2 (Homo sapiens (Human), UniProt Q9Y4K0); assay: LOXL2 inhibition, peroxidase-coupled Amplex Red amine oxidase assay; conditions: 30 min preincubation at 37° C., putrescine substrate
Description: (§1) Method to Determine the Ability of Compounds of the Invention to Inhibit LOX and LOXL1-4 from Different Sources
(§2) Lysyl oxidase (LOX) is an extracellular copper dependent enzyme which oxidizes peptidyl lysine and hydroxylysine residues in collagen and lysine residues in elastin to produce peptidyl alpha-aminoadipic-delta-semialdehydes. […] There are five LOX family members; these are LOX, LOXL1, LOXL2, LOXL3 and LOXL4. LOX and LOXL family members can be acquired as recombinant active proteins from commercial sources, or extracted from animal tissues like bovine aorta, tendons, pig skin; or prepared from cell cultures. The inhibitory effects of the compounds of the present invention were tested against the given LOX-LOXL preparation using a high-throughput coupled colorimetric method (Holt A. and Palcic M., A peroxidase-coupled continuous absorbance plate-reader assay for flavin monoamine oxidases, copper-containing amine oxidases and related enzymes. Nat. Protoc. 2006; 1: 2498-2505). The assay was developed using either 384 or 96 well format. Briefly, in a standard 384 well plate assay 25 μL of a dilution of any of the isoenzymes and orthologues in 1.2 M urea, 50 mM sodium borate buffer (pH 8.2) were added into each well in the presence of 1 μM mofegiline and 0.5 mM pargyline (to inhibit SSAO and MAO-B and MAO-A, respectively). Test compounds were dissolved in DMSO and tested in a Concentration Response Curve (CRC) with 11 data points, typically in the micromolar or nanomolar range after incubation with the enzyme for 30 min at 37° C. Twenty five L of a reaction mixture containing twice the KM concentration of putrescine (Sigma Aldrich, e.g. 20 mM for LOX, or 10 mM for LOXL2 and LOXL3), 120 μM Amplex Red (Sigma Aldrich) and 1.5 U/mL horseradish peroxidase (Sigma Aldrich) prepared in 1.2 M urea, 50 mM sodium borate buffer (pH 8.2) were then added to the corresponding wells. The above volumes were doubled in the case of 96 wells plate. The fluorescence (RFU) was read every 2.5 min for 30 min at a range of temperatures from 37° to 45° C., excitation 565 nm and emission 590 (Optima; BMG labtech). The slope of the kinetics for each well was calculated using MARS data analysis software (BMG labtech) and this value was used to deduce the IC50 value (Dotmatics).

[2] = biological target: human recombinant SSAO/VAP-1 (Homo sapiens (Human), UniProt Q16853); assay: Inhibition of human recombinant SSAO/VAP-1 amine oxidase activity; conditions: 30 min preincubation at 37° C., 600 μM benzylamine
human recombinant SSAO/VAP-1, sequence (Q16853 34-763): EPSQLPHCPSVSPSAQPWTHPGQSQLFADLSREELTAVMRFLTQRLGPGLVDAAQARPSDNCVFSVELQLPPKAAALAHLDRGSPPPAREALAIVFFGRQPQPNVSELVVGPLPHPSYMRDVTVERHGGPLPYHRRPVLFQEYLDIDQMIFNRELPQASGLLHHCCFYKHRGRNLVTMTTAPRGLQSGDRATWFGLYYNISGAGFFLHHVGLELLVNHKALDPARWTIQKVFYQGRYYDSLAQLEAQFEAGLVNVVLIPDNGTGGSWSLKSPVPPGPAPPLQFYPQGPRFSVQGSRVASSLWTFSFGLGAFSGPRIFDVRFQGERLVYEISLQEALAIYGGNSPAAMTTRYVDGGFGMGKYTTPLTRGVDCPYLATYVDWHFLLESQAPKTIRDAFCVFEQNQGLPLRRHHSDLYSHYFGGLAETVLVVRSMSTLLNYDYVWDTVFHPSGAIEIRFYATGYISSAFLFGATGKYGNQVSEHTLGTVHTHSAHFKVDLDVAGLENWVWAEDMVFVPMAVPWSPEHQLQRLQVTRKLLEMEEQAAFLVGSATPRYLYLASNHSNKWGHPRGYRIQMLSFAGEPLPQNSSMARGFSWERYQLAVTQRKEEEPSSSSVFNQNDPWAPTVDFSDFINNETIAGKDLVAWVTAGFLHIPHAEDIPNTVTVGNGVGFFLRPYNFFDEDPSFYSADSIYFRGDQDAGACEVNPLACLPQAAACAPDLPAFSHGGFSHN
Procedure: Method to Determine the Ability of Compounds of Formula I to Inhibit Human Recombinant SSAO/VAP-1
Human recombinant SSAO/VAP-1 amine oxidase activity was determined using the coupled colorimetric method as described for monoamine oxidase, copper-containing amine oxidases and related enzymes (Holt A. and Palcic M., A peroxidase-coupled continuous absorbance plate-reader assay for flavin monoamine oxidases, copper-containing amine oxidases and related enzymes. Nat Protoc 2006; 1: 2498-2505). Briefly, a cloned cDNA template corresponding to residues 34-763 of human SSAO/VAP-1, and incorporating a mouse Ig kappa (κ) signal sequence, N-terminal flag epitope tag and tobacco etch virus (TEV) cleavage site, was assembled in a mammalian expression vector (pLO-CMV) by Geneart AG. This vector containing human SSAO/VAP-1 residues was transfected into CHO-K1 glycosylation mutant cell line, Lec 8. A clone stably expressing human SSAO/VAP-1 was isolated and cultured in large scale. Active human SSAO/VAP-1 was purified and recovered using immunoaffinity chromatography. This was used as the source for SSAO/VAP-1 activity. A high-throughput colorimetric assay was developed using either 96 or 384 well format. Briefly, in a standard 96 well plate assay 50 μL of purified human SSAO/VAP-1 (0.25 μg/mL) in 0.1 M sodium phosphate buffer (pH 7.4) was added into each well. Test compounds were dissolved in DMSO and tested in a Concentration Response Curve (CRC) with 4-11 data points, typically in the micromolar or nanomolar range after incubation with human SSAO/VAP-1 for 30 min at 37° C. After 30 min incubation, 50 μL of the reaction mixture containing 600 μM benzylamine (Sigma Aldrich), 120 μM Amplex Red (Sigma Aldrich) and 1.5 U/mL horseradish peroxidase (Sigma Aldrich) prepared in 0.1 M sodium phosphate buffer (pH 7.4) were added to the corresponding well. The fluorescence unit (RFU) was read every 2.5 min for 30 min at 37° C. excitation 565 nm and emission 590 (Optima; BMG labtech). The slope of the kinetics for each well was calculated using MARS data analysis software (BMG labtech) and this value was used to deduce the IC50 value (Dotmatics).

[3] = biological target: Bovine LOX (Bos taurus (Bovine), UniProt P33072); assay: LOX inhibition, peroxidase-coupled Amplex Red amine oxidase assay; conditions: 30 min preincubation at 37° C., putrescine substrate
Bovine LOX, sequence (P33072 170-418): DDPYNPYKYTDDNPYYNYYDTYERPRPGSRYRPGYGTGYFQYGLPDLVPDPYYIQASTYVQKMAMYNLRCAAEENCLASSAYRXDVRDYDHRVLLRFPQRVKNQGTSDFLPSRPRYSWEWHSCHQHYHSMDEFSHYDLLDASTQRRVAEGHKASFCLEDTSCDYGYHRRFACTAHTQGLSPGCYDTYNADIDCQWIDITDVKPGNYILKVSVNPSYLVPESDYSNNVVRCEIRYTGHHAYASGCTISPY
Description: as §1
as §2, with “Test compounds were dissolved in DMSO and tested in a Concentration Response Curve (CRC) with 11 data points, typically in the micromolar or nanomolar range after incubation with the enzyme for 30 min at 37° C.” left out

[4] = biological target: Recombinant human MAO-B (Homo sapiens (Human), UniProt P27338); assay: Inhibition of human recombinant MAO-B; conditions: benzylamine 100 μM
Recombinant human MAO-B, sequence (P27338 whole entry): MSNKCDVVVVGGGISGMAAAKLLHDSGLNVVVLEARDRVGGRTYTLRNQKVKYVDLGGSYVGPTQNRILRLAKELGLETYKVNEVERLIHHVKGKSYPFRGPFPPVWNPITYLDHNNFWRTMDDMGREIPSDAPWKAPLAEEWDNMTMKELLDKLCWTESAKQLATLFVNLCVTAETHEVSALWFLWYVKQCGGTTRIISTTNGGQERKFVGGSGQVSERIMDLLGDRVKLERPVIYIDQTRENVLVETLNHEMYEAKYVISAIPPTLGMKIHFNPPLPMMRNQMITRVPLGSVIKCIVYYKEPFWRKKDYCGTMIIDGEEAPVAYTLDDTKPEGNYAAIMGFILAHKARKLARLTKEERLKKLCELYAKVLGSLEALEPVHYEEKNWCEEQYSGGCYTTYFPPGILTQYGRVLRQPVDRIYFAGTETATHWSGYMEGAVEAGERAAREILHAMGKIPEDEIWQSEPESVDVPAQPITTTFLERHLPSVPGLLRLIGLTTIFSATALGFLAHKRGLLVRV
Procedure: Method to Determine the Ability of Compounds of Formula I to Inhibit Human Recombinant MAO-B
The specificity of the compounds of this invention was tested by determining their ability to inhibit MAO-B activities in vitro. Recombinant human MAO-B (0.06 mg/mL; Sigma Aldrich) was used as source of MAO-B enzyme activities. The assay was performed in a similar way as for human SSAO/VAP-1 (Example 66) except, the substrate benzylamine was used at 100 μM.

Human LOXL2, sequence (Q9Y4K0 26-774): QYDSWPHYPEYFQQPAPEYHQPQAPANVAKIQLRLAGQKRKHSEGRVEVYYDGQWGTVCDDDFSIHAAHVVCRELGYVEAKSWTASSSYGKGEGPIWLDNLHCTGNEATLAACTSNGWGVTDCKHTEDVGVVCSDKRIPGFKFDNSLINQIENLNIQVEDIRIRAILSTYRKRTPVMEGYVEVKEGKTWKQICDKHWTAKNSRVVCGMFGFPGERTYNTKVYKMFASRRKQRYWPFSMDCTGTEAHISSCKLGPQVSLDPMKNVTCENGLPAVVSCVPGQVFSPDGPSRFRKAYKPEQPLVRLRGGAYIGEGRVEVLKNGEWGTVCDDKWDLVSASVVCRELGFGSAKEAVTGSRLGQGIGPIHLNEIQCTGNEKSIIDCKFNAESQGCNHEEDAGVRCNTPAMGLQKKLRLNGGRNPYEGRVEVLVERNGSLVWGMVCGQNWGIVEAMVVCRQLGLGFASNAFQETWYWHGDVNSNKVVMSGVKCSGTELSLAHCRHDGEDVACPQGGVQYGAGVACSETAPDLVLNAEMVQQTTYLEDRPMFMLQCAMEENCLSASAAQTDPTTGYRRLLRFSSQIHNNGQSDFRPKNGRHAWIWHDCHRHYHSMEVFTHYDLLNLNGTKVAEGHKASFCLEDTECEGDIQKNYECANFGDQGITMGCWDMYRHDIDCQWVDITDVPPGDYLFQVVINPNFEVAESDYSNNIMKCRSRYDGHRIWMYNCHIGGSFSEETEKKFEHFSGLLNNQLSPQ

Cc1cc(-c2c(C)n(C/C(F)=C/CN)c3ccc([N+](=O)[O-])cc23)cc(C)n1 [Compound 101, (Z)-4-(3-(2,6-dimethylpyridin-4-yl)-2-methyl-5-nitro-1H-indol-1-yl)-3-fluorobut-2-en-1-amine]
IC50 [1]: < 0.3 µM | IC50 [2]: > 3 µM | IC50 [3]: > 0.3 µM | IC50 [4]: > 3 µM

CNS(=O)(=O)c1cncc(-c2c(C)n(C/C(F)=C/CN)c3ccc(Cl)cc23)c1 [Compound 70, (Z)-5-(1-(4-amino-2-fluorobut-2-en-1-yl)-5-chloro-2-methyl-1H-indol-3-yl)-N-methylpyridine-3-sulfonamide]
IC50 [1]: < 0.3 µM | IC50 [2]: > 3 µM | IC50 [3]: > 0.3 µM | IC50 [4]: > 3 µM

Cc1c(-c2ccncc2)c2cc(Cl)ccc2n1C/C(F)=C/CN [Compound 76, (Z)-4-(5-chloro-2-methyl-3-(pyridin-4-yl)-1H-indol-1-yl)-3-fluorobut-2-en-1-amine]
IC50 [1]: < 0.3 µM | IC50 [2]: > 3 µM | IC50 [3]: > 0.3 µM | IC50 [4]: > 3 µM

Cc1c(-c2cncnc2)c2cc(Cl)ccc2n1C/C(F)=C/CN [Compound 80, (Z)-4-(5-chloro-2-methyl-3-(pyrimidin-5-yl)-1H-indol-1-yl)-3-fluorobut-2-en-1-amine]
IC50 [1]: < 0.3 µM | IC50 [2]: > 3 µM | IC50 [3]: > 0.3 µM | IC50 [4]: > 3 µM

Cc1c(-c2ccc(F)cc2)c2cc(C(=O)O)ccc2n1C/C(F)=C/CN [Compound 23, (Z)-1-(4-amino-2-fluorobut-2-en-1-yl)-3-(4-fluorophenyl)-2-methyl-1H-indole-5-carboxylic acid]
IC50 [1]: < 0.3 µM | IC50 [2]: > 3 µM | IC50 [3]: > 0.3 µM | IC50 [4]: > 3 µM

CN(C)S(=O)(=O)c1cncc(-c2cn(C/C(F)=C/CN)c3ccc(Cl)cc23)c1 [Compound 66, (Z)-5-(1-(4-amino-2-fluorobut-2-en-1-yl)-5-chloro-1H-indol-3-yl)-N,N-dimethylpyridine-3-sulfonamide]
IC50 [1]: < 0.3 µM | IC50 [2]: > 3 µM | IC50 [3]: > 0.3 µM | IC50 [4]: > 3 µM

Cc1c(-c2cccc(S(=O)(=O)C(F)(F)F)c2)c2cc(C(=O)N(C)C)ccc2n1C/C(F)=C/CN [Compound 57, (Z)-1-(4-amino-2-fluorobut-2-en-1-yl)-N,N,2-trimethyl-3-(3-((trifluoromethyl)sulfonyl)phenyl)-1H-indole-5-carboxamide]
IC50 [1]: < 0.3 µM | IC50 [2]: > 3 µM | IC50 [3]: > 0.3 µM | IC50 [4]: > 3 µM

Cc1c(-c2cccc(S(=O)(=O)N(C)C)c2)c2cc(C(F)F)ccc2n1C/C(F)=C/CN [Compound 59, (Z)-3-(1-(4-amino-2-fluorobut-2-en-1-yl)-5-(difluoromethyl)-2-methyl-1H-indol-3-yl)-N,N-dimethylbenzene-sulfonamide]
IC50 [1]: < 0.3 µM | IC50 [2]: > 3 µM | IC50 [3]: > 0.3 µM | IC50 [4]: > 3 µM

COc1cc(-c2c(C)n(C/C(F)=C/CN)c3ccc(S(C)(=O)=O)cc23)ccn1 [Compound 98, (Z)-3-fluoro-4-(3-(2-methoxypyridin-4-yl)-2-methyl-5-(methylsulfonyl)-1H-indol-1-yl)but-2-en-1-amine]
IC50 [1]: < 0.3 µM | IC50 [2]: > 3 µM | IC50 [3]: > 0.3 µM | IC50 [4]: > 3 µM

Cc1c(-c2cccc(S(=O)(=O)N(C)C)c2)c2cccc(C(=O)O)c2n1C/C(F)=C/CN [Compound 48, (Z)-1-(4-amino-2-fluorobut-2-en-1-yl)-3-(3-(N,N-dimethylsulfamoyl)phenyl)-2-methyl-1H-indole-7-carboxylic acid]
IC50 [1]: < 0.3 µM | IC50 [2]: > 3 µM | IC50 [3]: > 0.3 µM | IC50 [4]: > 3 µM

Cc1c(-c2cccc(S(=O)(=O)N(C)C)n2)c2cc(Cl)ccc2n1C/C(F)=C/CN [Compound 78, (Z)-6-(1-(4-amino-2-fluorobut-2-en-1-yl)-5-chloro-2-methyl-1H-indol-3-yl)-N,N-dimethylpyridine-2-sulfonamide]
IC50 [1]: < 0.3 µM | IC50 [2]: > 3 µM | IC50 [3]: > 0.3 µM | IC50 [4]: > 3 µM

CCOC(=O)c1ccc2c(n1)c(-c1cccc(S(=O)(=O)N(C)C)c1)c(C)n2C/C(F)=C/CN [Compound 42, (Z)-ethyl 1-(4-amino-2-fluorobut-2-en-1-yl)-3-(3-(N,N-dimethylsulfamoyl)phenyl-2-methyl-1H-pyrrolo[3,2-b]pyridine-5-carboxylate, Dihydrochloride]
IC50 [1]: < 0.3 µM | IC50 [2]: > 3 µM | IC50 [3]: > 0.3 µM | IC50 [4]: > 3 µM

Cc1c(-c2cccc(S(=O)(=O)N(C)C)c2)c2nc(O)ccc2n1C/C(F)=C/CN [Compound 60, (Z)-3-(1-(4-amino-2-fluorobut-2-en-1-yl)-5-hydroxy-2-methyl-1H-pyrrolo[3,2-b]pyridin-3-yl)-N,N-dimethylbenzenesulfonamide Hydrochloride]
IC50 [1]: < 0.3 µM | IC50 [2]: > 3 µM | IC50 [3]: > 0.3 µM | IC50 [4]: > 3 µM

Cc1c(-c2cccc(Cl)c2)c2cc(C(=O)O)ccc2n1C/C(F)=C/CN [Compound 28, (Z)-1-(4-amino-2-fluorobut-2-en-1-yl)-3-(3-chlorophenyl)-2-methyl-1H-indole-5-carboxylic acid]
IC50 [1]: < 0.3 µM | IC50 [2]: > 3 µM | IC50 [3]: > 0.3 µM | IC50 [4]: > 3 µM
